Measured values as given in ChEMBL document CHEMBL5230154, “Chemical probe of AHL modulators on quorum sensing in Gram-Negative Bacteria and as antiproliferative agents: A review” (Eur J Med Chem, 2021).
Each block holds one molecule with its values, some of them ahead of it.

What was measured:
[1] = Cytotoxicity against human PBMC cells assessed as reduction in cell viability at 100 uM by MTT assay; assay type: toxicity, cell-based
[2] = Inhibition of quorum sensing system in Pseudomonas aeruginosa PAO1 assessed as decrease in pqsR expression at 15 uM incubated for 12 hrs by real-time fluorescent quantitative PCR analysis
[3] = Inhibition of quorum sensing system in Pseudomonas aeruginosa PAO1 assessed as inhibition of pyocyanin production at 15 uM incubated for 12 hrs by spectrophotometric assay
[4] = Inhibition of quorum sensing system in Pseudomonas aeruginosa PAO1 assessed as decrease in rhlR expression at 15 uM incubated for 12 hrs by real-time fluorescent quantitative PCR analysis
[5] = Inhibition of quorum sensing system in Pseudomonas aeruginosa PAO1 assessed as inhibition of rhamnolipid production at 15 uM incubated for 12 hrs by spectrophotometric assay
[6] = Inhibition of quorum sensing system in Pseudomonas aeruginosa PAO1 assessed as inhibition of elastase production at 15 uM incubated for 12 hrs by Congo red dye based spectrophotometric assay
[7] = Inhibition of quorum sensing system in Pseudomonas aeruginosa PAO1 assessed as decrease in lasA expression at 15 uM incubated for 12 hrs by real-time fluorescent quantitative PCR analysis
[8] = Inhibition of quorum sensing system in Pseudomonas aeruginosa PAO1 assessed as decrease in pqsA expression at 15 uM incubated for 12 hrs by real-time fluorescent quantitative PCR analysis
Pseudomonas aeruginosa [9] = assay: Inhibition of biofilm formation in Pseudomonas aeruginosa PAO1 incubated for 12 hrs by crystal violet staining based analysis; assay type: functional
[10] = Inhibition of quorum sensing system in Pseudomonas aeruginosa PAO1 assessed as decrease in lasI expression at 15 uM incubated for 12 hrs by real-time fluorescent quantitative PCR analysis
Pseudomonas aeruginosa [11] = assay: Antibiofilm activity against Pseudomonas aeruginosa PAO1 NCTC 10332 assessed as inhibition of biofilm formation incubated for 24 hrs by crystal violet staining based assay; assay type: functional, organism-based; details: PAO1 NCTC 10332, 24 h
Serratia marcescens = assay: Antibiofilm activity against Serratia marcescens ATCC 27117 assessed as inhibition of biofilm formation incubated for 24 hrs by crystal violet staining based assay; assay type: functional, organism-based; details: ATCC 27117, 24 h
[12] = target: T1, Transcriptional activator protein LasR (Pseudomonas aeruginosa (strain ATCC 15692 / PAO1 / 1C / PRS 101 / LMG12228)) (UniProt P25084); assay: Antagonist activity against LasR-mediated quorum sensing system in Pseudomonas aeruginosa PAO1 assessed as inhibition of pyocyanin production at 200 uM incubated for 13 hrs by spectrophotometric assay; details: filed as antagonist
T1 sequence (whole entry): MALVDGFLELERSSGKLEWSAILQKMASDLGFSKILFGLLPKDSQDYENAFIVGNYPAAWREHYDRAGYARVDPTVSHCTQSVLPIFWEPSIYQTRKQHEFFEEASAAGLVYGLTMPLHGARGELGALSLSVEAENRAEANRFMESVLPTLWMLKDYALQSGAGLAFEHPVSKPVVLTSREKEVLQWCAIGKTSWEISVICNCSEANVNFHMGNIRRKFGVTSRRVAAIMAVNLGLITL

[13] = Inhibition of quorum sensing system in Pseudomonas aeruginosa PA14 assessed as inhibition of pyocyanin production incubated for 17 hrs by spectrophotometric assay
Escherichia coli [14] = assay: Inhibition of Escherichia coli MT102 harbouring pJBA132 expressing Gfp assessed as inhibition of GFP fluorescence expression at 62.5 uM incubated for 15 hrs by fluorescence microplate reader analysis
Escherichia coli [15] = assay: Inhibition of Escherichia coli MT102 harbouring pJBA132 expressing Gfp assessed as inhibition of GFP fluorescence expression at 125 uM incubated for 15 hrs by fluorescence microplate reader analysis
Escherichia coli [16] = assay: Inhibition of Escherichia coli MT102 harbouring pJBA132 expressing Gfp assessed as inhibition of GFP fluorescence expression at 250 uM incubated for 15 hrs by fluorescence microplate reader analysis
Pseudomonas aeruginosa [17] = assay: Inhibition of Pseudomonas aeruginosa MH602 harboring PlasB::gfp(ASV) reporter assessed as decrease in GFP expression at 250 uM incubated for 22 hrs by fluorescence microplate reader analysis
[18] = Antagonist activity against quorum sensing system in Pseudomonas aeruginosa PAO1 transfected with lasB-lacZ reporter gene assessed as inhibition of beta-galactosidase activity incubated for 24 hrs by elastin-Congo red assay
Pseudomonas aeruginosa [19] = assay: Antagonist activity against quorum sensing system in Pseudomonas aeruginosa PAO-JP2 (plasI-LVAgfp) assessed as inhibition of 3-oxo-C12 HSL induced GFP expression at 100 uM incubated for 6 hrs in presence of 50 uM of 3-oxo-C12-D10 by fluorescence analysis; details: filed as antagonist
Pseudomonas aeruginosa [20] = assay: Antagonist activity against quorum sensing system in Pseudomonas aeruginosa PAO-JP2 (plasI-LVAgfp) assessed as inhibition of 3-oxo-C12 HSL induced GFP expression at 100 uM incubated for 6 hrs in presence of 10 uM of 3-oxo-C12-D10 by fluorescence analysis; details: filed as antagonist
Pseudomonas aeruginosa [21] = assay: Antagonist activity against quorum sensing system in Pseudomonas aeruginosa PAO-JP2 (plasI-LVAgfp) assessed as inhibition of 3-oxo-C12 HSL induced GFP expression at 100 uM incubated for 6 hrs in presence of 100 uM of 3-oxo-C12-D10 by fluorescence analysis; details: filed as antagonist
Pseudomonas aeruginosa [22] = assay: Inhibition of quorum sensing system in Pseudomonas aeruginosa MH602 expressing PlasB::gfp assessed as inhibition of GFP fluorescence expression at 250 uM incubated for 15 hrs by fluorescence microplate reader analysis
Pseudomonas aeruginosa [23] = assay: Inhibition of quorum sensing system in Pseudomonas aeruginosa MH602 expressing PlasB::gfp assessed as inhibition of GFP fluorescence expression at 62.5 uM incubated for 15 hrs by fluorescence microplate reader analysis
[24] = Inhibition of quorum sensing system in Pseudomonas aeruginosa MW1 assessed as inhibition of LasR expression incubated for 8 to 12 hrs in presence of 3-oxo-C12 HSL by fluorescence analysis
[25] = Inhibition of quorum sensing system in Pseudomonas aeruginosa MW1 assessed as inhibition of LasR expression at 33 uM incubated for 8 to 12 hrs in presence of 3-oxo-C12 HSL by fluorescence analysis; details: time 8-12 hrs
[26] = Inhibition of quorum sensing system in Pseudomonas aeruginosa PAO1 assessed as inhibition of pyocyanin production at 32 uM incubated for 17 hrs by spectrophotometric analysis
[27] = Inhibition of quorum sensing system in Pseudomonas aeruginosa PAO1 assessed as inhibition of pyocyanin production at 250 uM incubated for 17 hrs by spectrophotometric analysis
[28] = target: T2, Transcriptional activator protein LuxR (Vibrio fischeri (strain ATCC 700601 / ES114), UniProt P35327); assay: Antagonist activity against LuxR mediated quorum sensing system in Vibrio fischeri ES114 expressing luxI assessed as decrease in luminescence intensity incubated for 4 to 8 hrs by bioluminescence analysis; design: species or system Aliivibrio fischeri
T2 sequence (P35327 whole entry): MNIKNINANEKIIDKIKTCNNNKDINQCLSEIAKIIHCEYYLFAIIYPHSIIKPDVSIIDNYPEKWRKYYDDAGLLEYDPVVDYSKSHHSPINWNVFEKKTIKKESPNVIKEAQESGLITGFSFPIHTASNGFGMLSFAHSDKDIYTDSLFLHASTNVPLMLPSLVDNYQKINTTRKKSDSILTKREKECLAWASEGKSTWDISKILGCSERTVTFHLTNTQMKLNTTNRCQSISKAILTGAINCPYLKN

[29] = Inhibition of quorum sensing system in Pseudomonas aeruginosa PA14 assessed as inhibition of pyocyanin production by UV-vis spectrophotometric assay
Pseudomonas aeruginosa [30] = assay: Anti-motility activity against Pseudomonas aeruginosa PAO1 NCTC 10332 assessed as reduction in swimming at 50 uM and measured after 18 hr; assay type: functional; design: scale not given: the % may be the effect or the level left
[31] = Inhibition of quorum sensing system in Pseudomonas aeruginosa PAO1 assessed as inhibition of pqsR expression incubated for 4 hrs by RT-PCR analysis
Pseudomonas aeruginosa [32] = assay: Anti-motility activity against Pseudomonas aeruginosa PAO1 NCTC 10332 assessed as reduction in swarming at 50 uM and measured after 16 hr by swarming assay; assay type: functional; design: scale not given: the % may be the effect or the level left
Pseudomonas aeruginosa [33] = assay: Antagonist activity against quorum sensing system in Pseudomonas aeruginosa PAO-JP2 (plasI-LVAgfp) assessed as inhibition of 3-oxo-C12 HSL induced GFP expression at 100 uM incubated for 6 hrs in presence of 1 uM of 3-oxo-C12 HSL by fluorescence analysis; details: filed as antagonist
Pseudomonas aeruginosa [34] = assay: Inhibition of Pseudomonas aeruginosa MH602 harboring PlasB::gfp(ASV) reporter assessed as decrease in GFP expression at 125 uM incubated for 22 hrs by fluorescence microplate reader analysis

Compound: O=C(CCCNc1ccc(Cl)cc1)NC1CCOC1=O (stereo unspecified)
Activity [1]: 57.4%

inhibition [2]: 47.9% | inhibition [3]: 33% | inhibition [4]: 55.5% | inhibition [5]: 20.8% | inhibition [6]: 14.3% | inhibition [7]: 71% | inhibition [8]: 67.7% | inhibition [10]: 38.9%
Compound: O=C(CSC(=S)N[C@H]1CCOC1=O)NC(=O)Nc1cccc2ccccc12
inhibition (INH) (Pseudomonas aeruginosa [9]): 35.3%

IC50 (Pseudomonas aeruginosa [11]): 63 µM | IC50 (Serratia marcescens): 63 µM
Compound: NCCCCCCCCCCCCNc1ccnc2cc(C(F)(F)F)ccc12

inhibition [12]: 67%
Compound: CCCCCCCCCC(=O)CC(=O)Nc1cccc(I)c1

IC50 [13]: 9 µM
Compound: O=C(CCCOc1cccc(Cl)c1)NC1CCSC1=O (stereo unspecified)

Compound: O=C1C(=O)N(C(=O)CCl)c2ccc([N+](=O)[O-])cc21
inhibition (Escherichia coli [14]): 48.5% | inhibition (Escherichia coli [15]): 60.8% | inhibition (Escherichia coli [16]): 65.8% | inhibition (Pseudomonas aeruginosa [17]): 57.3%

IC50 [18]: 250 µM
Compound: CCCCCCCC(=O)NC1CCCC1

inhibition (Pseudomonas aeruginosa [19]): 80% | inhibition (Pseudomonas aeruginosa [20]): 60% | inhibition (Pseudomonas aeruginosa [21]): 90%
Compound: CCCCCCCCCC(=O)CC(=O)Nc1ccccc1O

inhibition [12]: 73%
Compound: CCCCCCCCCC(=O)CC(=O)Nc1ccc(OC)cc1

inhibition [12]: 93%
Compound: CCCCCCCCCC(=O)CC(=O)Nc1cccc(OC)c1

inhibition (Pseudomonas aeruginosa [22]): 74% | inhibition (Pseudomonas aeruginosa [23]): 32.1%
Compound: O=C1C(Cl)=C(Cl)CN1CCc1ccc(O)cc1

inhibition [2]: 53.5% | inhibition [3]: 27.5% | inhibition [5]: 17.6% | inhibition [7]: 58.5% | inhibition [10]: 47.9%
Compound: O=C(CCSc1ccc(Cl)cc1)N[C@H]1CCOC1=O
inhibition (INH) (Pseudomonas aeruginosa [9]): 34.1%

IC50 [24]: 10 µM | inhibition [25]: 75%
Compound: CCCCCCCCCNC(=O)CC(=O)c1ccccc1

inhibition (Pseudomonas aeruginosa [22]): 80.4% | inhibition [26]: 80% | inhibition [27]: 90%
Compound: Nc1cccc(N2CC(Cl)=C(Cl)C2=O)c1

Compound: O=C(CCCNc1ccc(F)cc1)NC1CCOC1=O (stereo unspecified)
Activity [1]: 49.2%

IC50 [28]: 0.6 µM
Compound: O=C(Cc1ccc(Cl)cc1)N[C@H]1CCOC1=O

IC50 [29]: 25 µM | IC50 [31]: 30 µM
Compound: Clc1ccc2c(NCCCCCCCCNCc3cc4ccccc4s3)ccnc2c1
Activity (Pseudomonas aeruginosa [30]): 40% | Activity (Pseudomonas aeruginosa [32]): 40%

inhibition (Pseudomonas aeruginosa [33]): 70%
Compound: CCCCCCCCCCCC(=O)NC1CCC[C@@H]1O (stereo partly specified)

Compound: O=C1C(=O)N(C(=O)CCl)c2ccccc21
inhibition (Pseudomonas aeruginosa [17]): 60.1% | inhibition (Pseudomonas aeruginosa [34]): 34.7%
